In PMC7872319, “Probing Biomolecular Interactions by a Pattern-Forming Peptide–Conjugate Sensor” (Bioconjugate Chemistry, 2020):
“Also recorded” adds a separate entry of the source. Read-outs that look alike come from different tables or passages of the source.

How the values were obtained:
MinD [1] = conditions: 1 μM MinD, 500 nM MinE(13-31)-biotin, 90 nM divalent streptavidin
MinD ATPase [2] = biological target: T1, MinD ATPase (Escherichia coli, UniProt P0AEZ3); test: MinD ATPase assay: free biotin competing with MinE(13-31)-biotin for divalent streptavidin; assay type: biochemical; set-up: His (N); made in house; host or cells: E. coli BL21 (DE3)
T1 sequence (P0AEZ3 1-270): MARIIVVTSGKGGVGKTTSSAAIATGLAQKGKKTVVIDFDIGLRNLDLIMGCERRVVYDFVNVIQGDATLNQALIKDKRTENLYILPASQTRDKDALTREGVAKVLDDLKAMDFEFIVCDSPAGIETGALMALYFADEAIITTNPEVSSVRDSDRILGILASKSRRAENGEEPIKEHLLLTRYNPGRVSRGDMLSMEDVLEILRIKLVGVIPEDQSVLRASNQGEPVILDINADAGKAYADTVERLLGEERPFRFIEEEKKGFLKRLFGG

MinD [3] = test: Self-organization assay: ssDNA competition with preformed dsDNA-peptide conjugate; assay type: biochemical, Escherichia coli; conditions: 160 nM common 10 nt and 10 nt peptide conjugates preincubated with 1 μM MinD, competitor added in increasing amounts
Experimental: Supported lipid bilayers (SLBs) were formed by fusion of SUVs in a 96-well plate with a glass bottom (Greiner Bio-One, Kremsmünster, Austria). Plates were cleaned for 30 s (30% power, 0.3 mbar) in a Zepto plasma cleaner (Diener electronic GmbH, Ebhausen, Germany) using oxygen as the process gas. Lipids were prepared as described above, except that sonication was used instead of freeze–thaw cycles to form SUVs. SUVs were added to each reaction chamber at a final concentration of 0.6 mg/mL and incubated for 2 min on a 37 °C warm heating block.
All self-organization assays were performed as previously described.[12],[30] […] For fluorescence imaging, MinD was doped with 30% ATTO655-KCK-MinD.
Imaging was performed on either a commercial Zeiss LSM800 or LSM780 confocal microscope each equipped with a Zeiss C-Apochromat 40X/1.20 water-immersion objective (Carl Zeiss AG, Oberkochen, Germany). ATTO655-KCK-MinD was excited at 640 nm and imaging was performed with a pinhole diameter of 1 Airy unit.
Image analysis was performed in Fiji with the Radial Profile plugin (https://imagej.nih.gov/ij/plugins/radial-profile.html) using custom macro scripts.[31],[32] To discriminate among different patterns and to further characterize them, two approaches were applied. In the first, autocorrelation analysis was performed for each image. A soft windowing function (raised-cosine window, 1 at the center and 0.75 at the edges) was applied to reduce edge effects. Then the autocorrelation image was computed, from which a radial amplitude profile was generated. The position of the first peak in the profile was identified as the correlation distance. Patterns were further analyzed by computing the percentage variation of the correlation intensity along the ring in the autocorrelation image, here defined as correlation dispersion. […] Once separated, the pattern types were further characterized on the basis of additional parameters. Specifically, for the quasi-stationary patterns we used the spot density, derived from the reciprocal of the squared correlation distance, or the correlation distance itself. […]

MinD ATPase [4] = biological target: T1, MinD ATPase; conditions: read-out: IC50 of MinD ATPase activity; unconjugated ssDNA competitor added to MinD with common 10 nt + complementary 10 nt peptide conjugates; two independent assays, each three technical replicates; 95% CI (nM): 12-mer 60.3 to 81.9, 10-mer 393.6 to 772.0, 7-mer 1557.0 to 2730.0
MinD ATPase [5] = biological target: T1, MinD ATPase; conditions: 1 μM MinD, controls: four technical replicates, unconjugated peptide or single unhybridized conjugate

## O=C(O)CCCC[C@@H]1SC[C@@H]2NC(=O)N[C@@H]21 [free biotin, biotin]
MinD [1]
  free biotin concentration for complete abolition of patterns: approximately 50 nM
MinD ATPase [2]
  IC50: 8.7 nM

## 10-mer: competitor ssDNA 5`-AGATGTATTT-3`, 8 overlaps (DNA, backbone not given here)
MinD [3]
  alteration/abolition of MinD patterns by ssDNA competitor: abolition of MinD self-organization, but only at higher concentrations in comparison to the 12-mer; also recorded: altered wavelengths of the protein patterns, before eventually abolishing them completely
MinD [3]; listed as 10mer
  alteration/abolition of MinD patterns by ssDNA competitor: alteration, and ultimately abolition, of protein patterns
MinD ATPase [4]
  IC50: 551 nM

## N-term-NTANIAKERLQIIVAERRRGSGK(N3)-C-term [MinE(13-31)]
MinD ATPase [5]
  MinD ATPase stimulation (in words): only able to slightly stimulate MinD’s ATPase activity
MinD ATPase [5]; listed as unconjugated peptide
  MinD ATPase stimulation (in words): slightly elevated

## 12-mer: competitor ssDNA 5`-CTAGATGTATAA-3`, 12 overlaps (DNA, backbone not given here)
MinD [3]
  alteration/abolition of MinD patterns by ssDNA competitor: alteration, and ultimately abolition, of protein patterns; also recorded: clear transformation from propagating surface waves, through quasi-stationary patterns (reverse hexagons), to the complete abolition of protein patterns
MinD ATPase [4]
  IC50: 70.3 nM
